From publication PMC4385830, “Group I Paks as therapeutic targets in NF2-deficient meningioma” (Oncotarget, 2015)

Experiments:
Assay in all cases: Kinase selectivity, Z'-LYTE
Assay type in all cases: biochemical
[1] = target: T1, ADRBK2 (GRK3) (Homo sapiens, UniProt P35626)
T1 construct: purchased Invitrogen (Life Technologies) SelectScreen Z'-LYTE
T1 sequence (P35626 1-688): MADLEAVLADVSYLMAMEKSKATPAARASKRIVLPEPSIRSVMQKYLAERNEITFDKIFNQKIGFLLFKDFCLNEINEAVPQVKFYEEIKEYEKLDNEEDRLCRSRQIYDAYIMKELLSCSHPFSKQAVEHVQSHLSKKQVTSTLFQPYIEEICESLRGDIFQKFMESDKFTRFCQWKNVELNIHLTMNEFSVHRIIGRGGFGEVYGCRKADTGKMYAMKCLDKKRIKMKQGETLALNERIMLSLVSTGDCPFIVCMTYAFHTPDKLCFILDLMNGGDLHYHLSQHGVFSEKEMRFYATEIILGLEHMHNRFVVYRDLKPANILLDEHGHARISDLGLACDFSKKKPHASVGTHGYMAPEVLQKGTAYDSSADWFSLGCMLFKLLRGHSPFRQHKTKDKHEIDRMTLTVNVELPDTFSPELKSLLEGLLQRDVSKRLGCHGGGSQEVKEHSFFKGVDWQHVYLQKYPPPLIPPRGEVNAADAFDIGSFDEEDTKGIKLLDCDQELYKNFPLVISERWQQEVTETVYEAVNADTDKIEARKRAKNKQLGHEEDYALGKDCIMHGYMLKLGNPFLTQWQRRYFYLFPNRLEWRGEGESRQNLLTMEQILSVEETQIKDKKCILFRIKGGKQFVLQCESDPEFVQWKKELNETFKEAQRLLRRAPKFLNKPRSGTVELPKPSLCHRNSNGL
Protocol: (§1) Kinase selectivity was assessed using a commercial service that employs a fluorescence-based, coupled-enzyme assay based on the differential sensitivity of phosphorylated and non-phosphorylated peptides to proteolytic cleavage (Invitrogen, Z'-LYTE®). This assay uses recombinant protein kinases and assay mixed optimized for each particular kinase (http://www.lifetechnologies.com/us/en/home/life-science/drug-discovery/target-and-lead-identification-and-validation /kinasebiology/kinase-activity-assays/z-lyte.html).

[2] = target: T2, AKT1 (PKB alpha) (Homo sapiens, UniProt P31749)
T2 construct: purchased Invitrogen (Life Technologies) SelectScreen Z'-LYTE
Protocol: as §1

[3] = target: T3, BTK (Homo sapiens, UniProt Q06187)
T3 construct: purchased Invitrogen (Life Technologies) SelectScreen Z'-LYTE
Protocol: as §1

[4] = target: T4, CDK9/cyclin T1 (Homo sapiens, UniProt P50750)
T4 construct: purchased Invitrogen (Life Technologies) SelectScreen Z'-LYTE
Protocol: as §1

[5] = target: T5, ERBB2 (HER2) (Homo sapiens, UniProt P04626)
T5 construct: purchased Invitrogen (Life Technologies) SelectScreen Z'-LYTE
Protocol: as §1

[6] = target: T6, ERBB4 (HER4) (Homo sapiens, UniProt Q15303)
T6 construct: purchased Invitrogen (Life Technologies) SelectScreen Z'-LYTE
Protocol: as §1

[7] = target: T7, FLT1 (VEGFR1) (Homo sapiens, UniProt P17948)
T7 construct: purchased Invitrogen (Life Technologies) SelectScreen Z'-LYTE
Protocol: as §1

[8] = target: T8, G3K3B (G3K3 beta) (Homo sapiens, UniProt P49841)
T8 construct: purchased Invitrogen (Life Technologies) SelectScreen Z'-LYTE
Protocol: as §1

[9] = target: T9, MAP2K2 (MEK2) (Homo sapiens, UniProt P36507)
T9 construct: purchased Invitrogen (Life Technologies) SelectScreen Z'-LYTE
Protocol: as §1

[10] = target: T10, MAPK1 (ERK2) (Homo sapiens, UniProt P28482)
T10 construct: purchased Invitrogen (Life Technologies) SelectScreen Z'-LYTE
Protocol: as §1

[11] = target: T11, MAPK11 (p38 beta) (Homo sapiens, UniProt Q15759)
T11 construct: purchased Invitrogen (Life Technologies) SelectScreen Z'-LYTE
Protocol: as §1

[12] = target: T12, MAPK9 (JNK2) (Homo sapiens, UniProt P45984)
T12 construct: purchased Invitrogen (Life Technologies) SelectScreen Z'-LYTE
Protocol: as §1

[13] = target: T13, MET (cMet) (Homo sapiens, UniProt P08581)
T13 construct: purchased Invitrogen (Life Technologies) SelectScreen Z'-LYTE
Protocol: as §1

[14] = target: T14, PIM1 (Homo sapiens, UniProt P11309)
T14 construct: purchased Invitrogen (Life Technologies) SelectScreen Z'-LYTE
Protocol: as §1

[15] = target: T15, PRKCE (PKC epsilon) (Homo sapiens, UniProt Q02156)
T15 construct: purchased Invitrogen (Life Technologies) SelectScreen Z'-LYTE
T15 sequence (Q02156 1-737): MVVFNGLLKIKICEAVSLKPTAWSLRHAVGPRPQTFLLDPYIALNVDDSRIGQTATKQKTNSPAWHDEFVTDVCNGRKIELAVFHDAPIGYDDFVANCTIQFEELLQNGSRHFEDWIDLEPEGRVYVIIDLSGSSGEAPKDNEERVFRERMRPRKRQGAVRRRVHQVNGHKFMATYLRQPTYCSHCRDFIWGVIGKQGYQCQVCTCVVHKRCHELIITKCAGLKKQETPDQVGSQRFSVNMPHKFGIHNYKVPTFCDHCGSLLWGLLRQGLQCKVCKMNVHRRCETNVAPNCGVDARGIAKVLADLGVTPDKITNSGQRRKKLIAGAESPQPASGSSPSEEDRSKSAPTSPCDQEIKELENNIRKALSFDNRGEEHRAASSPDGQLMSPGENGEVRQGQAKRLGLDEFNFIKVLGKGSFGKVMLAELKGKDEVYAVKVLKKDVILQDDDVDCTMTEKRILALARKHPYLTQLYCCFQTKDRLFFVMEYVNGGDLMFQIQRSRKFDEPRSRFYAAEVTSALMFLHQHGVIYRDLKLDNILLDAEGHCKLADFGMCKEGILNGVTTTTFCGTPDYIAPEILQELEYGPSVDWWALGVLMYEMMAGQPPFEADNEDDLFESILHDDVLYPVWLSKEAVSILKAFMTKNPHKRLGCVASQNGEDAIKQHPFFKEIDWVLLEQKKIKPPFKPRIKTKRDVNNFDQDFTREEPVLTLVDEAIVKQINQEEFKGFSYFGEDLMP
Protocol: as §1

[16] = target: T16, SPHK1 (Homo sapiens, UniProt Q9NYA1)
T16 construct: purchased Invitrogen (Life Technologies) SelectScreen Z'-LYTE
Protocol: as §1

[17] = target: T17, SRC (Homo sapiens, UniProt P12931)
T17 construct: purchased Invitrogen (Life Technologies) SelectScreen Z'-LYTE
Protocol: as §1

[18] = target: T18, SYK (Homo sapiens, UniProt P43405)
T18 construct: purchased Invitrogen (Life Technologies) SelectScreen Z'-LYTE
Protocol: as §1

T4 sequence (P50750 whole entry): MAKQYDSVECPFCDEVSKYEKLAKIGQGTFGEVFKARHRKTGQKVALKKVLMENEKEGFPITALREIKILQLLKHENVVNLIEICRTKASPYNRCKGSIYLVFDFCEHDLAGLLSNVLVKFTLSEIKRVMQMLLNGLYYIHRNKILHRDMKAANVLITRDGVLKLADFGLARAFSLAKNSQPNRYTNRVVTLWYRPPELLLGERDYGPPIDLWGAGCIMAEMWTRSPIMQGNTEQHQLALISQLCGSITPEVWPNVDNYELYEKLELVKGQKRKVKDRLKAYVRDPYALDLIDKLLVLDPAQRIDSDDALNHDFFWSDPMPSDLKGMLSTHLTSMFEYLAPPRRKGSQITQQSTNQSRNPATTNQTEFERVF
T4 sequence (O60563 whole entry partner): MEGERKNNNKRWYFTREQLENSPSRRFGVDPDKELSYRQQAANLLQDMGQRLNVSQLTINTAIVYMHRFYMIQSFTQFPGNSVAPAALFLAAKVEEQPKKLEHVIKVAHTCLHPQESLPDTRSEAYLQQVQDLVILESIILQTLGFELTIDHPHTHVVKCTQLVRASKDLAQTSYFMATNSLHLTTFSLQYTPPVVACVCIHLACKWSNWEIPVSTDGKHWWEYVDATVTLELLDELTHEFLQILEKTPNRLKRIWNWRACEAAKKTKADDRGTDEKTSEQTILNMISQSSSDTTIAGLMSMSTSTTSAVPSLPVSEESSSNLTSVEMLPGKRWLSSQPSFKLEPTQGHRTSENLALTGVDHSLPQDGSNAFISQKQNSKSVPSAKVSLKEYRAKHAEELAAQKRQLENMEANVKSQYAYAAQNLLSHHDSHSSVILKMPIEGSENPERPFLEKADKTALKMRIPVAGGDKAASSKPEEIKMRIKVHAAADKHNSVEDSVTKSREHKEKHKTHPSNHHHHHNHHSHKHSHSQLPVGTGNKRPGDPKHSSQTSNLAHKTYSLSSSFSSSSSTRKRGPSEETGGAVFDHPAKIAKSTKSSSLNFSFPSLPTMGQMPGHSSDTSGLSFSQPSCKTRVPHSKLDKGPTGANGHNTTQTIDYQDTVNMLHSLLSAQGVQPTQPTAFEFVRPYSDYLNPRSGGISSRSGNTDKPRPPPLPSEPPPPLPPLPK
T16 sequence (Q9NYA1 whole entry): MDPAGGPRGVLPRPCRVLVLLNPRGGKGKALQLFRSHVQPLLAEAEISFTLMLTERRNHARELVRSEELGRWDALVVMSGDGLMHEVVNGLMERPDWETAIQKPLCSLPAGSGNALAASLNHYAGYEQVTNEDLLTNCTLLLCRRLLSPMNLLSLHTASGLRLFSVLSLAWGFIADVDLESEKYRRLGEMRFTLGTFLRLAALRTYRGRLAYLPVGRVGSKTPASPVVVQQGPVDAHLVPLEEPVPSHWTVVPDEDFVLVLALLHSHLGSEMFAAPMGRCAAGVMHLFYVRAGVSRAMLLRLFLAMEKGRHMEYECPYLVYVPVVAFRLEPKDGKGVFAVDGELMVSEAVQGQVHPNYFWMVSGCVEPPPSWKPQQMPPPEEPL
T3 sequence (Q06187 whole entry): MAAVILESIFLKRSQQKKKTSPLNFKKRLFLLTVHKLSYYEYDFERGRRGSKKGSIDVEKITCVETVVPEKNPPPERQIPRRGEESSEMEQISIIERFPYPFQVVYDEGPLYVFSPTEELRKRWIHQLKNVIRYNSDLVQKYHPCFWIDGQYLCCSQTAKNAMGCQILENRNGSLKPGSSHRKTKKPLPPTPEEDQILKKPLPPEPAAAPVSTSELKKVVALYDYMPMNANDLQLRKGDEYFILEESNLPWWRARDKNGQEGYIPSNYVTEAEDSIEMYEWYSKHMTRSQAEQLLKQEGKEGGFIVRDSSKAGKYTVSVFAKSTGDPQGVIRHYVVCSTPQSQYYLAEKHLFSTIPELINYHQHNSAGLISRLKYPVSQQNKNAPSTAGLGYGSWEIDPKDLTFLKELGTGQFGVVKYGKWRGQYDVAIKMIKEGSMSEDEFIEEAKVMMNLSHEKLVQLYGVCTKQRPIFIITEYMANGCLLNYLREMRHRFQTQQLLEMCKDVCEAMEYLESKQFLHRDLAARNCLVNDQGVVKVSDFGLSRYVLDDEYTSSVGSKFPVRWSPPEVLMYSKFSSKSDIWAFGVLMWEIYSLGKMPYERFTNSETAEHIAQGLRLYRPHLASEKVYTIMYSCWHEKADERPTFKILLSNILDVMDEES
T12 sequence (P45984 whole entry): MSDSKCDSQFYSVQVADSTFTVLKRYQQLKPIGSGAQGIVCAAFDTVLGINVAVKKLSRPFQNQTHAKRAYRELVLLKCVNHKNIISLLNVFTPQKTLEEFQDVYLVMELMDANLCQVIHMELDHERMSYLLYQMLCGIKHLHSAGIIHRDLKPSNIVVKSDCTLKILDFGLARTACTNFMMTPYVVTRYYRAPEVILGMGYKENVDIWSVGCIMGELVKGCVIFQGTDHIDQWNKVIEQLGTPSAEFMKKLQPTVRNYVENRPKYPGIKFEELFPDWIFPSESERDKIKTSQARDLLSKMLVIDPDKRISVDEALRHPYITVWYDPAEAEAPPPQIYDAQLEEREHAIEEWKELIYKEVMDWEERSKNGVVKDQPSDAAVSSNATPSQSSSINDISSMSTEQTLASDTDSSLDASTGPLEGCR
T8 sequence (P49841 whole entry): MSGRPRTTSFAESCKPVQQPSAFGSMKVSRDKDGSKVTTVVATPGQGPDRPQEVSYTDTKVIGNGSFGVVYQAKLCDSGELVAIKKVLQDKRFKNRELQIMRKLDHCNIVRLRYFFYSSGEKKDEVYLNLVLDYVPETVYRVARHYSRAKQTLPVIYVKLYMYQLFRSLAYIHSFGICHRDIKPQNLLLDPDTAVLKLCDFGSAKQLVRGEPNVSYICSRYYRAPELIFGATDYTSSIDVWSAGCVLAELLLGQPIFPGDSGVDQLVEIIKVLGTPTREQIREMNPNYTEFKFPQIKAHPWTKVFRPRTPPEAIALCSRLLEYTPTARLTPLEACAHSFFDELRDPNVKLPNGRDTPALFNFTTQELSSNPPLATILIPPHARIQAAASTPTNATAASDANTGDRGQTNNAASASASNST
T6 sequence (Q15303 26-1308): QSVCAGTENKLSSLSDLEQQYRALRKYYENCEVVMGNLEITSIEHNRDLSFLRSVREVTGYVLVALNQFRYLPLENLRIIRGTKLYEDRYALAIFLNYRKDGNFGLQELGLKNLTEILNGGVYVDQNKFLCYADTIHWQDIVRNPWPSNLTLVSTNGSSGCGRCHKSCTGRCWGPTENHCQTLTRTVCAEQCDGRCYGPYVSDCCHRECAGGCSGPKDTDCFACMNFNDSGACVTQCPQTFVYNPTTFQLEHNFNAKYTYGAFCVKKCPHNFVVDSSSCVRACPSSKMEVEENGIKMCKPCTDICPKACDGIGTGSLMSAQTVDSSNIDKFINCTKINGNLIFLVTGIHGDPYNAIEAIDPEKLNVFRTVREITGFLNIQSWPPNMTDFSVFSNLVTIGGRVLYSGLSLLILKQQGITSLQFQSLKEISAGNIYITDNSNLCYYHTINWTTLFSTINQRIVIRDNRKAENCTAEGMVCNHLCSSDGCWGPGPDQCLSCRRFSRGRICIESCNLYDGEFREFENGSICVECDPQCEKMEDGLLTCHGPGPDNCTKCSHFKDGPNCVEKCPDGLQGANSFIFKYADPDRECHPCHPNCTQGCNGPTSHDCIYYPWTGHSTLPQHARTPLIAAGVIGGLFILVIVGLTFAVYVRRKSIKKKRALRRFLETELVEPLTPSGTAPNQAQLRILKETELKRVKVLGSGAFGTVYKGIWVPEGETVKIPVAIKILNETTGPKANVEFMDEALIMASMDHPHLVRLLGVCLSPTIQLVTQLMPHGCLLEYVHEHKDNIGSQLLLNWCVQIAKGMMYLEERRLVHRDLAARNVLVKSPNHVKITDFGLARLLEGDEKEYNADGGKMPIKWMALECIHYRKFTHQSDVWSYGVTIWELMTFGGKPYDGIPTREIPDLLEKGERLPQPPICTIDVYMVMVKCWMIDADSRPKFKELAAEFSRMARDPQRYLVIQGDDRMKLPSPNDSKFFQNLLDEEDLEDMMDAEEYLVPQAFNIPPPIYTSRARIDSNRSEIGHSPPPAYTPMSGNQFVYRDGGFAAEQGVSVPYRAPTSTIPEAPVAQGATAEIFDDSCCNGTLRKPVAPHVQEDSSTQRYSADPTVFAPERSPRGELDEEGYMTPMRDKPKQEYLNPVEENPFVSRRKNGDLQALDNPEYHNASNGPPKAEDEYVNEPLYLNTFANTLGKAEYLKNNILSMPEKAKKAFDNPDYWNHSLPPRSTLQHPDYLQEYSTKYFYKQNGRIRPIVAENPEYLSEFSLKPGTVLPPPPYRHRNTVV
T10 sequence (P28482 whole entry): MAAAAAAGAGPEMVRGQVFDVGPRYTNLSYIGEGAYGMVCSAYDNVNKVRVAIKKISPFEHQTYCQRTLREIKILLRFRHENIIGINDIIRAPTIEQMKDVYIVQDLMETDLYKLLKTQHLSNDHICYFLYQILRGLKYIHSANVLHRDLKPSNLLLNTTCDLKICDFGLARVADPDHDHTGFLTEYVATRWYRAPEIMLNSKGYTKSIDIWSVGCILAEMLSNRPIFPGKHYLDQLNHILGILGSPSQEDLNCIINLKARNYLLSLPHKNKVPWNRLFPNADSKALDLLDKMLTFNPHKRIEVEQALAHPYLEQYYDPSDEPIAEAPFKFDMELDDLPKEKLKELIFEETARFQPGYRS
T14 sequence (P11309 whole entry): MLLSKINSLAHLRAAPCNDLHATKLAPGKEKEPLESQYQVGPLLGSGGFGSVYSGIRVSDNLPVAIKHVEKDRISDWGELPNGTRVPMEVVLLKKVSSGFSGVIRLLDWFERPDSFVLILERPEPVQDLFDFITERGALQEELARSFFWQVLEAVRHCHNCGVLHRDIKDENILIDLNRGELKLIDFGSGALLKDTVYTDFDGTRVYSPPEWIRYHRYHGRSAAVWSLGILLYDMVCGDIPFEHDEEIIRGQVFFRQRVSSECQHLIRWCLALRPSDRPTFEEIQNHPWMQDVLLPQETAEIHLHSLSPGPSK

SMILES | % inhibition of activity [1] [%] | % inhibition of activity [2] [%] | % inhibition of activity [3] [%] | % inhibition of activity [4] [%] | % inhibition of activity [5] [%] | % inhibition of activity [6] [%] | % inhibition of activity [7] [%] | % inhibition of activity [8] [%] | % inhibition of activity [9] [%] | % inhibition of activity [10] [%] | % inhibition of activity [11] [%] | % inhibition of activity [12] [%] | % inhibition of activity [13] [%] | % inhibition of activity [14] [%] | % inhibition of activity [15] [%] | % inhibition of activity [16] [%] | % inhibition of activity [17] [%] | % inhibition of activity [18] [%]
Cc1nc(Nc2[nH]nc3c2CN(C(=O)N[C@H](CN(C)C)c2ccccc2)C3(C)C)c2sccc2n1 [PF3758309, reference compound] | 4 | 16 | 74 | 13 | 4 | 2 | 5 | 77 | 20 | 23 | 8 | 0 | 19 | 6 | 62 | 4 | 74 | 32
CCn1c(=O)c(-c2ccc(-c3noc(C)n3)cc2Cl)cc2cnc(Nc3ccc(C4CCN(C)CC4)cc3)nc21 [Frax716] | 2 | 1 | 87 | 3 | 8 | 77 | 37 | 14 | 79 | 7 | 2 | 20 | 38 | −4 | 14 | −3 | 97 | 21
CCn1c(=O)c(-c2ccc(-c3cncc(C)n3)cc2Cl)cc2cnc(NCCC3CCN(C)CC3)nc21 [Frax1036] | −1 | 0 | 5 | −8 | 2 | 0 | 14 | 0 | 15 | 5 | 6 | 44 | 36 | 0 | 25 | 0 | 16 | 4
